Measurements taken from patent US11136296B2, “Substituted N-arylethyl-2-arylquinoline-4-carboxamides and use thereof” (Bayer Aktiengesellschaft, priority 2017, dated 2021).

These compounds were tested against FP receptor (Homo sapiens (Human), UniProt P43088) (assay: In vitro test of inhibition of human FP receptor activity (PGF2α-induced calcium flux in FP-expressing CHEM1 cells)). Conditions: PGF2α-induced (2 nM) calcium flux in FP-expressing CHEM1 cells; some as mean values from multiple determinations.
Type: cell-based
Excerpt: Table 1 below lists the IC50 values from this assay for individual working examples of the invention (some as mean values from multiple independent individual determinations): […]

Chain of FP receptor (P43088 whole entry): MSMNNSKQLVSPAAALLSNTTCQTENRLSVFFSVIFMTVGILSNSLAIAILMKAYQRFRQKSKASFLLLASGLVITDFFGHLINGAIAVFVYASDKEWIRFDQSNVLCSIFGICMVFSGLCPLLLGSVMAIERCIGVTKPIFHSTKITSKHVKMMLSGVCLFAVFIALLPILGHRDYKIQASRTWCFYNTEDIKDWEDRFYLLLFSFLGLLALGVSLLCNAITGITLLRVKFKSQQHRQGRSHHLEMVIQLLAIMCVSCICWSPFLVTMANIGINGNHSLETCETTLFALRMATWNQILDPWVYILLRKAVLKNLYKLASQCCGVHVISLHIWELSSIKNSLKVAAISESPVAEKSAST

IC50 [nM]	Structure (SMILES)
63	Cc1c(-c2ccccc2)nc2ccc(Br)cc2c1C(=O)NCC(C)(CCCC(=O)O)c1ccccc1 (single isomer, unassigned; (+)) [Example 245, (+)-6-{[(6-Bromo-3-methyl-2-phenylquinolin-4-yl)carbonyl]amino}-5-methyl-5-phenylhexanoic Acid]
54	Cc1c(-c2ccccc2)nc2ccc(Br)cc2c1C(=O)NCC(c1ccccc1Cl)N(C)CC(=O)O (single isomer, unassigned; (-)) [Example 188, (−)-N-[2-{[(6-Bromo-3-methyl-2-phenylquinolin-4-yl)carbonyl]amino}-1-(2-chlorophenyl)ethyl]-N-methylglycine]
49	Cc1c(-c2ccccc2)nc2ccc(Br)cc2c1C(=O)NCC(CCC(=O)O)c1c(F)c(F)cc(F)c1F (single isomer, unassigned; (+)) [Example 230, (+)-5-{[(6-Bromo-3-methyl-2-phenylquinolin-4-yl)carbonyl]amino}-4-(2,3,5,6-tetrafluorophenyl)pentanoic Acid]
320	CCOc1ccccc1C(CNC(=O)c1c(C)c(-c2ccccc2)nc2ccc(Br)cc12)CC(=O)O (single isomer, unassigned; (-)) [Example 130, (−)-4-{[(6-Bromo-3-methyl-2-phenylquinolin-4-yl)carbonyl]amino}-3-(2-ethoxyphenyl)butanoic Acid]
260	CCC(CNC(=O)c1c(C)c(-c2ccccc2)nc2ccc(Br)cc12)(C(=O)O)c1ccccc1 (single isomer, unassigned; (-)) [Example 17, (−)-2-({[(6-Bromo-3-methyl-2-phenylquinolin-4-yl)carbonyl]amino}methyl)-2-phenylbutanoic Acid]
270	Cc1c(-c2ccccc2)nc2ccc(Br)cc2c1C(=O)NCC(C(=O)O)c1ccccc1 (single isomer, unassigned; (+)) [Example 3, (+)-3-{[(6-Bromo-3-methyl-2-phenylquinolin-4-yl)carbonyl]amino}-2-phenylpropanoic Acid]
190	COc1cccc(C(CNC(=O)c2c(C)c(-c3ccccc3)nc3ccc(Br)cc23)C(=O)O)c1 (racemic) [Example 44, (+/−)-3-{[(6-Bromo-3-methyl-2-phenylquinolin-4-yl)carbonyl]amino}-2-(3-methoxyphenyl)propanoic Acid]
20	Cc1c(-c2ccccc2)nc2ccc(Br)cc2c1C(=O)NCC(CC(=O)O)c1ccccc1OC(F)(F)F (single isomer, unassigned; (-)) [Example 100, (−)-4-{[(6-Bromo-3-methyl-2-phenylquinolin-4-yl)carbonyl]amino}-3-[2-(trifluoromethoxy)phenyl]butanoic Acid]
22	Cc1c(-c2ccccc2)nc2ccc(Br)cc2c1C(=O)NCC(CCC(=O)O)c1ccccc1C(F)(F)F (single isomer, unassigned; (+)) [Example 205, (+)-5-{[(6-Bromo-3-methyl-2-phenylquinolin-4-yl)carbonyl]amino}-4-[2-(trifluoromethyl)phenyl]pentanoic Acid]
5.3	COc1ccc(F)cc1C(CNC(=O)c1c(C)c(-c2ccccc2)nc2ccc(Br)cc12)CC(=O)O (single isomer, unassigned; (+)) [Example 124, (+)-4-{[(6-Bromo-3-methyl-2-phenylquinolin-4-yl)carbonyl]amino}-3-(5-fluoro-2-methoxyphenyl)butanoic Acid]
7.6	Cc1c(-c2ccccc2)nc2ccc(Br)cc2c1C(=O)NCC(CCC(=O)O)c1ccccc1C(F)(F)F (racemic) [Example 203, (+/−)-5-{[(6-Bromo-3-methyl-2-phenylquinolin-4-yl)carbonyl]amino}-4-[2-(trifluoromethyl)phenyl]pentanoic Acid]
7.2	Cc1c(-c2ccccc2)nc2ccc(Br)cc2c1C(=O)NCC(CCC(=O)O)c1c(Cl)ccc(Cl)c1Cl (racemic) [Example 234, (+/−)-5-{[(6-Bromo-3-methyl-2-phenylquinolin-4-yl)carbonyl]amino}-4-(2,3,6-trichlorophenyl)pentanoic Acid]
290	Cc1c(-c2ccccc2)nc2ccc(Br)cc2c1C(=O)NCC(CC(=O)O)c1ccccn1 (single isomer, unassigned; (-)) [Example 103, (−)-4-{[(6-Bromo-3-methyl-2-phenylquinolin-4-yl)carbonyl]amino}-3-(pyridin-2-yl)butanoic Acid]
130	Cc1c(-c2ccccc2)nc2ccc(Br)cc2c1C(=O)NCC(C)(C(=O)O)c1c(F)cccc1F (single isomer, unassigned; (-)) [Example 34, (−)-3-{[(6-Bromo-3-methyl-2-phenylquinolin-4-yl)carbonyl]amino}-2-(2,6-difluorophenyl)-2-methylpropanoic Acid]
28	COc1cc(F)ccc1C(C)(CNC(=O)c1c(C)c(-c2ccccc2)nc2ccc(Br)cc12)CC(=O)O (single isomer, unassigned; (+)) [Example 139, (+)-4-{[(6-Bromo-3-methyl-2-phenylquinolin-4-yl)carbonyl]amino}-3-(4-fluoro-2-methoxyphenyl)-3-methylbutanoic Acid]
92	Cc1c(-c2ccccc2)nc2ccc(Br)cc2c1C(=O)NCC(CC(=O)O)c1ccccc1C(F)(F)F (racemic) [Example 105, (+/−)-4-{[(6-Bromo-3-methyl-2-phenylquinolin-4-yl)carbonyl]amino}-3-[2-(trifluoromethyl)phenyl]butanoic Acid]
> 1000	COc1cc(F)ccc1C(C)(CNC(=O)c1c(C)c(-c2ccccc2)nc2ccc(Br)cc12)CC(=O)O (single isomer, unassigned; (-)) [Example 140, (−)-4-{[(6-Bromo-3-methyl-2-phenylquinolin-4-yl)carbonyl]amino}-3-(4-fluoro-2-methoxyphenyl)-3-methylbutanoic Acid]
67	Cc1c(-c2ccccc2)nc2ccc(Br)cc2c1C(=O)NCC(NCC(=O)O)c1ccccc1Cl (racemic) [Example 190, (+/−)-N-[2-{[(6-Bromo-3-methyl-2-phenylquinolin-4-yl)carbonyl]amino}-1-(2-chlorophenyl)ethyl]glycine]
1.7	Cc1c(-c2ccccc2)nc2ccc(Br)cc2c1C(=O)NCC(CCC(=O)O)c1ccccc1OC(F)(F)F (single isomer, unassigned; (-)) [Example 211, (−)-5-{[(6-Bromo-3-methyl-2-phenylquinolin-4-yl)carbonyl]amino}-4-[2-(trifluoromethoxy)phenyl]pentanoic Acid]
21	Cc1c(-c2ccccc2)nc2ccc(Br)cc2c1C(=O)NCC(c1ccccc1Cl)S(=O)(=O)CC(=O)O (racemic) [Example 197, (+/−)-{[2-{[(6-Bromo-3-methyl-2-phenylquinolin-4-yl)carbonyl]amino}-1-(2-chlorophenyl)ethyl]sulfonyl}acetic Acid]
3.6	COc1ccccc1C(CCC(=O)O)CNC(=O)c1c(C)c(-c2ccccc2)nc2ccc(Br)cc12 (single isomer, unassigned; (+)) [Example 168, (+)-5-{[(6-Bromo-3-methyl-2-phenylquinolin-4-yl)carbonyl]amino}-4-(2-methoxyphenyl)pentanoic Acid]
32	COc1ccc(F)cc1C(C)(CNC(=O)c1c(C)c(-c2ccccc2)nc2ccc(Br)cc12)CC(=O)O (racemic) [Example 132, (+/−)-4-{[(6-Bromo-3-methyl-2-phenylquinolin-4-yl)carbonyl]amino}-3-(5-fluoro-2-methoxyphenyl)-3-methylbutanoic Acid]
